Assay results published in ChEMBL document CHEMBL5729236, “CIS-morpholinone and other compounds as MDM2 inhibitors for the treatment of cancer” (2022).

Target: E3 ubiquitin-protein ligase Mdm2 (Homo sapiens, UniProt Q00987)
Test: HTRF2 Assay: As the potencies of the HDM2 inhibitors increased, an improved HTRF assay (HTRF2 assay) was developed. All assay conditions remained the same as described above, with the exception of the following changes in reagent concentrations: 0.2 nM GST-hMDM2 (1-188), 0.5 nM biotinylated-p53 (1-83), 0.18 nM SA-XLent, and 100 mM KF.

Sequence of E3 ubiquitin-protein ligase Mdm2 (Q00987 whole entry): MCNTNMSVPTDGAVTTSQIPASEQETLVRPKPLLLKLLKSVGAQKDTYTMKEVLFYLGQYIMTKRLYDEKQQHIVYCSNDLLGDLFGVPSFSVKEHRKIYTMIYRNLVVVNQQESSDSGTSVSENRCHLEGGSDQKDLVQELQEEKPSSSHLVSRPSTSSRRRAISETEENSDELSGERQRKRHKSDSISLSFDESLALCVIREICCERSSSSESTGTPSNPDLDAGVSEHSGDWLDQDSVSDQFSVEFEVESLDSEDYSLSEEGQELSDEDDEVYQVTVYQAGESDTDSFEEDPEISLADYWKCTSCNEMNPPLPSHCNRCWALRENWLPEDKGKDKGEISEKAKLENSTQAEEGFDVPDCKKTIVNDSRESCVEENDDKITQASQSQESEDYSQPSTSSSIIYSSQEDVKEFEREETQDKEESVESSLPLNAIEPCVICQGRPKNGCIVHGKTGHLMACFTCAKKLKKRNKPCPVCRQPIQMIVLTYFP

Row | SMILES | IC50 [nM]
1 | CCC[C@H](C(=O)O)N1C(=O)CO[C@@H](c2ccc(Cl)cc2)[C@H]1c1cc2ccccc2[nH]1 (mixture of isomers) | 1290
2 | O=C1[C@H](CCCO)O[C@@H](c2cccc(Cl)c2)[C@@H](c2ccc(Cl)cc2)N1CC1CC1 (mixture of isomers) | 7230
3 | CCC[C@H](C(=O)N1CC(C(=O)O)C1)N1C(=O)[C@H](Cc2ccc(F)cc2)O[C@@H](c2ccc(Cl)cc2)[C@H]1c1ccc(Cl)cc1 (mixture of isomers) | 524
